Calls of active or inactive are those of the source.
Experiments:
SK-MEL-28 = experiment: Cytotoxicity against human SK-MEL-28 cells after 48 hrs by trypan blue dye exclusion assay; format: functional; conditions: SK-MEL-28, 48 h
Paracentrotus lividus [1] = experiment: Antimitotic activity against Paracentrotus lividus embryo assessed as cleavage arrest at 2 fold less effective threshold concentration after 2.5 to 6 hrs; format: functional, organism-based
SF-295 = experiment: Cytotoxicity against human SF295 cells after 48 hrs by trypan blue dye exclusion assay; format: functional; conditions: SF-295, 48 h
A549 = experiment: Cytotoxicity against human A549 cells after 48 hrs by trypan blue dye exclusion assay; format: functional; conditions: A549, 48 h
SF-539 = experiment: Cytotoxicity against human SF539 cells after 48 hrs by trypan blue dye exclusion assay; format: functional; conditions: SF-539, 48 h
DU-145 = experiment: Cytotoxicity against human DU145 cells after 48 hrs by trypan blue dye exclusion assay; format: functional; conditions: DU-145, 48 h
HL-60(TB) = experiment: Cytotoxicity against human HL-60(TB) cells after 48 hrs by trypan blue dye exclusion assay; format: functional; conditions: HL-60, 48 h
[2] = Cytotoxicity against human Hs 578T cells after 48 hrs by trypan blue dye exclusion assay; format: functional
NCI-H522 = experiment: Cytotoxicity against human NCI-H522 cells after 48 hrs by trypan blue dye exclusion assay; format: functional; conditions: NCI-H522, 48 h
SR = experiment: Cytotoxicity against human SR cells after 48 hrs by trypan blue dye exclusion assay; format: functional
MDA-MB-435 = experiment: Cytotoxicity against human MDA-MB-435 cells after 48 hrs by trypan blue dye exclusion assay; format: functional; conditions: MDA-MB-435, 48 h
CAKI-1 = experiment: Cytotoxicity against human CAKI-1 cells after 48 hrs by trypan blue dye exclusion assay; format: functional; conditions: CAKI-1, 48 h
KM12 = experiment: Cytotoxicity against human KM12 cells after 48 hrs by trypan blue dye exclusion assay; format: functional; conditions: KM12, 48 h
TK-10 = experiment: Cytotoxicity against human TK10 cells after 48 hrs by trypan blue dye exclusion assay; format: functional; conditions: TK-10, 48 h
OVCAR-3 = experiment: Cytotoxicity against human OVCAR3 cells after 48 hrs by trypan blue dye exclusion assay; format: functional; conditions: OVCAR-3, 48 h
OVCAR-8 = experiment: Cytotoxicity against human OVCAR8 cells after 48 hrs by trypan blue dye exclusion assay; format: functional; conditions: OVCAR-8, 48 h
SW-620 = experiment: Cytotoxicity against human SW620 cells after 48 hrs by trypan blue dye exclusion assay; format: functional; conditions: SW-620, 48 h
ACHN = experiment: Cytotoxicity against human ACHN cells after 48 hrs by trypan blue dye exclusion assay; format: functional
SF-268 = experiment: Cytotoxicity against human SF268 cells after 48 hrs by trypan blue dye exclusion assay; format: functional; conditions: SF-268, 48 h
HOP-62 = experiment: Cytotoxicity against human HOP62 cells after 48 hrs by trypan blue dye exclusion assay; format: functional; conditions: HOP-62, 48 h
MOLT-4 = experiment: Cytotoxicity against human MOLT4 cells after 48 hrs by trypan blue dye exclusion assay; format: functional; conditions: MOLT-4, 48 h
COLO 205 = experiment: Cytotoxicity against human COLO205 cells after 48 hrs by trypan blue dye exclusion assay; format: functional; conditions: COLO 205, 48 h
SN12C = experiment: Cytotoxicity against human SN12C cells after 48 hrs by trypan blue dye exclusion assay; format: functional
MCF7 = experiment: Cytotoxicity against human MCF7 cells after 48 hrs by trypan blue dye exclusion assay; format: functional; conditions: MCF7, 48 h
Paracentrotus lividus [3] = experiment: Microtubule destabilizing activity in Paracentrotus lividus embryo assessed as embryo spinning at 2 fold less effective threshold concentration after 15 mins to 20 hrs; format: functional, organism-based
OVCAR-4 = experiment: Cytotoxicity against human OVCAR4 cells after 48 hrs by trypan blue dye exclusion assay; format: functional; conditions: OVCAR-4, 48 h
T47D = experiment: Cytotoxicity against human T47D cells after 48 hrs by trypan blue dye exclusion assay; format: functional
786-0 = experiment: Cytotoxicity against human 786-0 cells after 48 hrs by trypan blue dye exclusion assay; format: functional; conditions: 786-0, 48 h
Malme-3M = experiment: Cytotoxicity against human MALME-3M cells after 48 hrs by trypan blue dye exclusion assay; format: functional
SK-MEL-5 = experiment: Cytotoxicity against human SK-MEL-5 cells after 48 hrs by trypan blue dye exclusion assay; format: functional; conditions: SK-MEL-5, 48 h
HT-29 = experiment: Cytotoxicity against human HT-29 cells after 48 hrs by trypan blue dye exclusion assay; format: functional; conditions: HT-29, 48 h

COc1ccc2c(c1)NC1=C(C(=O)OC1)C2c1cc(OC)c2c(c1)OCO2 (stereo not drawn)
GI50 (SK-MEL-28): 56.4 nM | Activity (Paracentrotus lividus [1]): inactive | GI50 (SF-295): < 10 nM | GI50 (A549): 14.6 nM | GI50 (SF-539): < 10 nM | GI50 (DU-145): 19 nM | GI50 (HL-60(TB)): 20.9 nM | GI50 [2]: < 10 nM | GI50 (NCI-H522): < 10 nM | GI50 (SR): < 10 nM | GI50 (MDA-MB-435): < 10 nM | GI50 (CAKI-1): 50.2 nM | GI50 (KM12): < 10 nM | GI50 (TK-10): 60.7 nM | GI50 (OVCAR-3): < 10 nM | TGI (OVCAR-3): 12.2 nM | GI50 (OVCAR-8): < 10 nM | GI50 (SW-620): < 10 nM | GI50 (ACHN): 56.7 nM | GI50 (SF-268): < 10 nM | GI50 (HOP-62): 12.1 nM | GI50 (MOLT-4): 12.9 nM | GI50 (COLO 205): < 10 nM | TGI (COLO 205): 26.8 nM | GI50 (SN12C): 19.9 nM | GI50 (MCF7): < 10 nM | Activity (Paracentrotus lividus [3]): inactive | GI50 (OVCAR-4): 19.5 nM | GI50 (T47D): > 100 µM | GI50 (786-0): 24.9 nM | GI50 (Malme-3M): > 100 µM | GI50 (SK-MEL-5): 10.8 nM | GI50 (HT-29): < 10 nM

Reference: ChEMBL document CHEMBL2010711, “Synthesis and comparative evaluation of 4-oxa- and 4-aza-podophyllotoxins as antiproliferative microtubule destabilizing agents” (Bioorg Med Chem Lett, 2012)
